Among the data in PubChem BioAssay (NCI) are GI50 and TGI values, retold here.

Assay in all cases: DTP human tumour cell line panel, 48 h
Test [1] concerns RPMI-8226 leukemia.
The subject of test [2] is SF-295 CNS.
Test [3] has as its system TK-10 renal.
Test [4] relates to SNB-75 CNS.
Test [5] deals with HCT-116 colon.
Test [6] deals with HL-60(TB) leukemia.
For test [7], the system named is SK-MEL-28 melanoma.
The test system of test [8] is SN12C renal.
Test [9] has as its system SK-OV-3 ovarian.
Test [10] relates to KM12 colon.

SMILES strings stand for the structures.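 Results reflect a 48-hour exposure of cells in 96-well plates to compound at five concentrations. GI50: concentration for 50% inhibition of growth. TGI marks complete inhibition of growth.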

With `O=C(c1ccncc1)N1CCN(C2=NS(=O)(=O)c3ccccc3N2c2ccccc2)CC1`, the GI50 – broadly, the concentration that inhibits growth by half – in test [1] was 35.5 µM; in [2], 9.87 µM; in test [3], 31.5 µM; in [4] it was 15.5 µM; in [5] it was 14.5 µM; in [6], 17.1 µM. The GI50 in test [7] is 15.6 µM; in [8] it was 7.55 µM; in [9] it was 13.4 µM; in test [10] it was 29.2 µM. Also, the TGI (commonly the concentration at which net growth stops) in test [1] is 96.2 µM; in [2], over 100 µM; in test [3], 77.1 µM; in test [4], 53.2 µM; in [5] it was 33.3 µM; in test [6], over 100 µM. Also, the TGI in test [7] was 38.7 µM; in test [8], over 100 µM; in test [9], over 100 µM; in test [10] it was over 100 µM.

On to `CNC(=O)c1c(NC(=O)c2ccc(C(C)C)cc2)sc2c1CCC(=O)C2`, for which the GI50 in [1] is 0.114 µM; in [2], 1.13 µM; in test [3], 0.504 µM; in test [4] it was 1.05 µM; in [5] it was 0.0892 µM; in test [6], 0.303 µM. Further, the GI50 was 0.748 µM in test [7], 0.603 µM in [8], 2.47 µM in [9] and 0.404 µM in test [10]. The TGI stood at 0.675 µM in [1]; 3.35 µM in test [2]; 13 µM in test [3]; 3.53 µM in test [4]; 1.34 µM in [5]; 2.15 µM in test [6]. The TGI in [7] was determined as 3.39 µM; in test [8] it was 2.38 µM; in test [9] it was 9.09 µM; in [10] it was 1.69 µM.

Turning to `COC(=O)c1cc(NC(=O)CN(CCN(CC(=O)O)CC(=O)Nc2ccc(O)c(C(=O)OC)c2)CC(=O)O)ccc1O`, the GI50 in [1] is over 100 µM; in [2] it was 25.8 µM; in [3] it was over 100 µM; in test [4], 55.3 µM; in test [5], 43.9 µM; in test [6], 42.2 µM. Moreover, the GI50 in test [7] was over 100 µM; in test [8] it was 63.8 µM; in [9], 45.5 µM; in test [10], over 100 µM. Also, the TGI in test [1], in [2], in test [3], in test [4], in [5] and in test [6] was over 100 µM each time. Further, the TGI in test [7], in test [8], in test [9] and in test [10] was over 100 µM throughout.

For `CNc1ccc(C(=O)CC(O)CCC(C)C2OC(=O)CC(O)CC(=O)CC(O)CC(O)CC(O)CC(O)CC3(O)CC(O)C(C(=O)NCCc4ccccn4)C(CC(OC4OC(C)C(O)C(N)C4O)/C=C/C=C/C=C/C=C\C=C/C=C/C=C/C2C)O3)cc1` (stereo unspecified), the GI50 is 0.823 µM in test [1]; 1.05 µM in test [2]; 0.128 µM in test [3]; over 50 µM in test [4]; 0.741 µM in [5]; 5.01 µM in test [6]. The GI50 in [7] was 0.161 µM; in test [8], 0.961 µM; in test [9], 2.32 µM; in test [10], 3.6 µM. Moreover, the total growth inhibition concentration (TGI) was over 50 µM in test [1]; 11.4 µM in test [2]; 0.499 µM in test [3]; over 50 µM in test [4]; over 50 µM in test [5]; 30.2 µM in test [6]. For the same compound, the total growth inhibition concentration (TGI) is over 50 µM in test [7], 2.09 µM in test [8], over 50 µM in test [9] and over 18.9 µM in test [10].

Take `N#C/C(=C\c1ccc([N+](=O)[O-])s1)c1nc2cc(Br)ccc2s1`: the concentration for 50% growth inhibition (GI50) was 0.246 µM in test [1]; 0.918 µM in test [3]; 0.355 µM in [4]; 0.0713 µM in [5]; 3.82 µM in test [6]; 0.346 µM in [7]. Moreover, the 50% growth inhibitory concentration (GI50) is 0.201 µM in [8], 1.64 µM in test [9] and 0.399 µM in [10]. Further, the TGI in test [1] is 0.856 µM; in test [2] it was over 100 µM; in test [3], over 100 µM; in [5], 0.388 µM; in test [6], over 100 µM; in [7], over 100 µM. In addition, the TGI in test [8] is 0.576 µM; in test [9] it was over 100 µM; in [10] it was 2.47 µM.

`COc1ccc(CCN2COc3ccc4ccc(=O)oc4c3C2)cc1OC`: the TGI in test [1] was 52.8 µM; in test [2], over 100 µM; in test [3] it was over 100 µM; in test [4], over 100 µM; in test [5] it was over 100 µM; in test [6], 41.7 µM. Moreover, the TGI in test [7], in [8], in test [9] and in test [10] was over 100 µM each time.

Consider `O=[N+]([O-])c1cc([N+](=O)[O-])c(C(Cl)C(Cl)c2ccccc2)cc1C(Cl)C(Cl)c1ccccc1` (stereo unspecified), for which the TGI in test [1] was 8.38 µM; in test [2], 5.17 µM; in [3], 4.23 µM; in [4], 5.17 µM; in test [5] it was 2.69 µM; in test [6] it was over 100 µM. The concentration for total growth inhibition (TGI) in test [7] amounted to 3.95 µM; in test [8], 3.49 µM; in [9] it was 80.1 µM; in test [10] it was 3.76 µM.

As to `Cc1nc2sc(C(=O)Nc3cccc(Cl)c3C)c(N)c2cc1C(=O)c1ccccc1`, the GI50 was 0.249 µM in test [1]; 0.179 µM in test [2]; 2.48 µM in [3]; 0.121 µM in [4]; 0.22 µM in test [5]; 0.147 µM in test [6]. The GI50 in test [7] was 1.45 µM; in [8], 0.568 µM; in [9], 0.229 µM; in [10] it was 0.225 µM. Besides, the TGI in test [1] is over 15.9 µM; in test [2], over 10.6 µM; in test [3], over 50 µM; in test [5] it was over 50 µM; in test [7] it was over 50 µM; in test [8], over 50 µM. Further, the TGI in test [9] and in test [10] was over 50 µM throughout.

For `CC(C)N(C(=O)C12C3C4C5C3C1(C#N)C5C42)C(C)C` (stereo unspecified), the TGI in [1], in test [2], in [3], in [4], in [5] and in [6] was over 100 µM each time. Also, the TGI in test [7], in [8], in test [9] and in [10] was over 100 µM throughout.
